Assay results as given in patent US20250313535A1, “ALPHA 4 BETA 7 INTEGRIN MODULATORS AND USES THEREOF” (DICE MOLECULES SV, INC., priority 2022, published 2025).
Read-outs that look alike come from different tables or passages of the source.

Columns and labels:
[1] = molecular target: α4β1 integrin (Homo sapiens (Human), UniProt P05556+P13612); test: Integrin Adhesion Assay: Protocol 5 (VCAM-coated plate, RPMI-8866 cells with stable LOF mutation of the ITGB7 gene); format: cell-based
How it was run: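 RPMI-8866 B cells with CRISPR/Cas9 ITGB7 knockout (clonal, verified by flow cytometry) adhered to VCAM-coated wells for 1 h at 37° C in HEPES/NaCl buffer with 1 mM MnCl2, 0.1 mM CaCl2, 1% BSA, 1% DMSO. Bound cells quantified by CellTiter-Glo luminescence after washing; % inhibition versus DMSO and control, 4-parameter fit.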

[2] = molecular target: α4β7 integrin (Homo sapiens (Human), UniProt P13612+P26010); test: Integrin Adhesion Assay: Protocol 4 (MAdCAM-coated plate, RPMI-8866 cells with stable LOF mutation of the ITGB1 gene); format: cell-based
How it was run: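 RPMI-8866 cells with CRISPR/Cas9 knockout of ITGB1 (2×10^6/mL) were added to MAdCAM-coated wells with compound (1% DMSO) in HEPES/NaCl buffer with 1 mM MnCl2, 0.1 mM CaCl2 and 1% BSA, then incubated 1 h at 37 °C. After four washes, adherent cells were quantified by CellTiter-Glo luminescence. Percent inhibition versus DMSO and control compound was fitted to 4-parameter curves.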

[3] = RPMI-8866 cells with stable LOF mutation of the ITGB7 gene, read-out: Mean IC50 α4β1 KO^b
[4] = RPMI-8866 cells with stable LOF mutation of the ITGB1 gene, read-out: Mean IC50 α4β7 KO^a
[5] = Protocol 5, RPMI-8866 cells with LOF mutation of ITGB7, VCAM, read-out: Mean IC50 α4β1 KO
[6] = Protocol 4, RPMI-8866 cells with LOF mutation of ITGB1, MAdCAM, read-out: Mean IC50 α4β7 KO

Sequence of α4β1 integrin (P13612 34-1032): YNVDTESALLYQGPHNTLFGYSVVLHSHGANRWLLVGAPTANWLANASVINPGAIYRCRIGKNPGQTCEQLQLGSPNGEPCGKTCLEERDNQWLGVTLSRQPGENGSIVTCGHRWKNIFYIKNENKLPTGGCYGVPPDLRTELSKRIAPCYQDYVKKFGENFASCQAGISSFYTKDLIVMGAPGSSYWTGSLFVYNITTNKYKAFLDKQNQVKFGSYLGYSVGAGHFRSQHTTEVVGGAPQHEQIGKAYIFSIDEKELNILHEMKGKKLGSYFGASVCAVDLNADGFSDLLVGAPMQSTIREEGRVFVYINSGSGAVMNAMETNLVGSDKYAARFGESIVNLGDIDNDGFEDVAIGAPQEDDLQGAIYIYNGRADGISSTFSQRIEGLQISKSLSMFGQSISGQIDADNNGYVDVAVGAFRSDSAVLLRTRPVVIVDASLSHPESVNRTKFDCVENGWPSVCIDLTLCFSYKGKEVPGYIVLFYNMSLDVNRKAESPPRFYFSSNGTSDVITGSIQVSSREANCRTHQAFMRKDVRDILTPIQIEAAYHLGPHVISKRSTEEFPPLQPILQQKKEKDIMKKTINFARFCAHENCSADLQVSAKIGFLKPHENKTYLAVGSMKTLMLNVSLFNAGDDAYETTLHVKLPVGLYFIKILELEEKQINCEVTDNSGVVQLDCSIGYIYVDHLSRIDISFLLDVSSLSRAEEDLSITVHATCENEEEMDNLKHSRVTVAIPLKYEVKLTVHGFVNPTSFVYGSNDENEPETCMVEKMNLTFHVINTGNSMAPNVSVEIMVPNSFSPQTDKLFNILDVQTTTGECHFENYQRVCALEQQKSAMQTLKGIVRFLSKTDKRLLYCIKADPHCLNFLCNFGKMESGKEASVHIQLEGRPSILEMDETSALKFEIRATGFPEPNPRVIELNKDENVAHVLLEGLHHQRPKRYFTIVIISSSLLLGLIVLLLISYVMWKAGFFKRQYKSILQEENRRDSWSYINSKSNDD
Sequence of α4β1 integrin (P05556 21-798): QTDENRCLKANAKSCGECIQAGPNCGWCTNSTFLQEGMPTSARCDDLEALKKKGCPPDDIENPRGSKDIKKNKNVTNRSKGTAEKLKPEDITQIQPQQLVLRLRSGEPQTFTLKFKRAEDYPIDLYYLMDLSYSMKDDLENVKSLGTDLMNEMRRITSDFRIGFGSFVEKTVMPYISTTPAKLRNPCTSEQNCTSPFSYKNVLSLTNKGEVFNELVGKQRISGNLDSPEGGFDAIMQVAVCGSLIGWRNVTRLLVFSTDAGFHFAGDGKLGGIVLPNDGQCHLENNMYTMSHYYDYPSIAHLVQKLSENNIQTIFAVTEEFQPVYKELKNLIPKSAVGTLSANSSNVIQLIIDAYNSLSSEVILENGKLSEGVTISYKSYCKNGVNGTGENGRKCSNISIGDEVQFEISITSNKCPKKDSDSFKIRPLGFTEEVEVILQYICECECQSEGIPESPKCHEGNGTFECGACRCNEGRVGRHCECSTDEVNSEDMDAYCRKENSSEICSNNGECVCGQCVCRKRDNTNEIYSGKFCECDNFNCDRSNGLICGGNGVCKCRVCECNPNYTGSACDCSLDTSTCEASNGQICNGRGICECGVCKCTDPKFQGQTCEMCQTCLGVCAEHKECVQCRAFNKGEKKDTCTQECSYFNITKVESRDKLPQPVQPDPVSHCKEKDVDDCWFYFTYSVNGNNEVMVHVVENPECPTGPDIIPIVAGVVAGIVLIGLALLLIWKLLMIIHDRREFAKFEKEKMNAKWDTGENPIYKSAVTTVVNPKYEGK
Sequence of α4β7 integrin (P13612 34-1032): as the sequence (P13612 34-1032) above
Sequence of α4β7 integrin (P26010 20-798): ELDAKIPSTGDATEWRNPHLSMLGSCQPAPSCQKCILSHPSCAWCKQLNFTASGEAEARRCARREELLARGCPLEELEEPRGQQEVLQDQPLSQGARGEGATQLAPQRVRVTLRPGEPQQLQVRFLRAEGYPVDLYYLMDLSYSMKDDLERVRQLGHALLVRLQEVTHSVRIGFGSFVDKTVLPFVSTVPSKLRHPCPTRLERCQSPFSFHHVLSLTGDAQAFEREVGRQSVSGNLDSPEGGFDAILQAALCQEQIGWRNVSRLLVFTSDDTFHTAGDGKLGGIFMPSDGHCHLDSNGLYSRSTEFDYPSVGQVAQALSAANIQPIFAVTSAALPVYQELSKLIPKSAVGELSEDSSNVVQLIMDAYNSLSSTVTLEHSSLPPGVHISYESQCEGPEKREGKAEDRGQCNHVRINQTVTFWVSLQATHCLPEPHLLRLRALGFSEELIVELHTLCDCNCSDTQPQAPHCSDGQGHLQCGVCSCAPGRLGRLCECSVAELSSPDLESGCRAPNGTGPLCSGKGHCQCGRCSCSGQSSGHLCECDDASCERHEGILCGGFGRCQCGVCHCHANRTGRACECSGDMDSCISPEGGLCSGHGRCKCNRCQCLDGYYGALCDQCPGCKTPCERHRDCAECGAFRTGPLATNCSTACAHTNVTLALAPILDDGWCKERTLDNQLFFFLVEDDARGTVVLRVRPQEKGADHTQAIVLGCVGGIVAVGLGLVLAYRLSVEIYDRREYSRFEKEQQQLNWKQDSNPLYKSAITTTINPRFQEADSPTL

| Compound | IC50 [1, 3] [nM] | IC50 [2, 4] [nM] | IC50 [1, 5] [nM] | IC50 [2, 6] [nM] |
| --- | --- | --- | --- | --- |
| COc1ccc(CN(C)CC(F)F)c(OC)c1-c1cccc2c(C[C@H](NC(=O)c3c(C)cccc3F)C(=O)O)cccc12 [Compound 637] | 100 to 1000 | < 10 |  |  |
| COc1ccc(CN2CCCCC2)nc1-c1cccc2c(C[C@H](NC(=O)c3c(C)cccc3F)C(=O)O)cccc12 [Compound 1016] |  |  | 100 to 1000 | < 10 |
| COc1ccc(CN2CC(C(F)(F)F)C2)c(OC)c1-c1cccc2c(C[C@H](NC(=O)C3(C(F)(F)F)CCN(CC(F)(F)F)CC3)C(=O)O)cccc12 [Compound 814] |  |  | > 1000 | 10 to 100 |
| O=C(O)[C@H](Cc1cccc2c(-c3ncc(CN4CCC(F)(F)CC4)cc3C3CC3)cccc12)NC(=O)C1(C(F)(F)F)CCN(CC(F)(F)F)CC1 [Compound 947] |  |  | 100 to 1000 | < 10 |
| CN(C)Cc1ccc2c(-c3cccc4c(C[C@H](NC(=O)C5(C(F)(F)F)CCN(CC(F)(F)F)CC5)C(=O)O)cccc34)nccc2c1 [Compound 584] | > 1000 | 10 to 100 |  |  |
| O=C(O)[C@H](Cc1cccc2c(-c3ncc(CN4CCCCC4)cc3C3CC3)cccc12)NC(=O)C1(C(F)(F)F)CCN(CC(F)(F)F)CC1 [Compound 882] |  |  | 100 to 1000 | < 10 |
| COc1cc(CN2CCC(C)(C)CC2)cnc1-c1cccc2c(C[C@H](NC(=O)C3(C(F)(F)F)CCN(CC(F)F)CC3)C(=O)O)cccc12 [Compound 924] |  |  | > 1000 | < 10 |
| COc1ccc(CN(C)C)c(C)c1-c1cccc2c(C[C@H](NC(=O)c3c(C)cccc3F)C(=O)O)cccc12 [Compound 558] | 100 to 1000 | < 10 |  |  |
| COc1c(CN2CCCCC2)ccc(Cl)c1-c1cccc2c(C[C@H](NC(=O)C3(C(F)(F)F)CCN(CC(F)(F)F)CC3)C(=O)O)cccc12 [Compound 799] |  |  | > 1000 | < 10 |
| COc1cc(C(F)(F)F)c(CN2CCCCC2)cc1-c1cccc2c(C[C@H](NC(=O)C3(C(F)(F)F)CCN(CC(F)(F)F)CC3)C(=O)O)cccc12 [Compound 832] |  |  | > 1000 | 10 to 100 |
| O=C(O)[C@H](Cc1cccc2c(-c3nccc4ccc(CCCN5C6CCCC5CC6)cc34)cccc12)NC(=O)C1(C(F)(F)F)CCN(CC(F)(F)F)CC1 [Compound 744] |  |  | > 1000 | < 10 |
| CC1(C)CCN(Cc2cnc(-c3cccc4c(C[C@H](NC(=O)C5(C(F)(F)F)CCN(CC(F)F)CC5)C(=O)O)cccc34)c3ccccc23)CC1 [Compound 861] |  |  | 100 to 1000 | < 10 |
| COc1ccc(CN2CCC(F)(F)CC2)c(C(F)(F)F)c1-c1cccc2c(C[C@H](NC(=O)C3(C(F)(F)F)CCN(CC(F)(F)F)CC3)C(=O)O)cccc12 [Compound 822] |  |  | > 1000 | 100 to 1000 |

Second part, the compound after the results:

| IC50 [1, 3] [nM] | IC50 [2, 4] [nM] | IC50 [1, 5] [nM] | IC50 [2, 6] [nM] | Compound |
| --- | --- | --- | --- | --- |
|  |  | > 1000 | < 10 | COc1ccc(CN2CCC(C(C)(C)C)CC2)c(OC)c1-c1cccc2c(C[C@H](NC(=O)C3(C(F)(F)F)CCN(CC(F)(F)F)CC3)C(=O)O)cccc12 [Compound 818] |
|  |  | 100 to 1000 | < 10 | CC(C)Oc1cc(CN2CCCCC2)cnc1-c1cccc2c(C[C@H](NC(=O)C3(C(F)(F)F)CCN(CC(F)(F)F)CC3)C(=O)O)cccc12 [Compound 894] |
|  |  | 100 to 1000 | < 10 | COc1ccc(CCN2CCCCC2)cc1-c1cccc2c(C[C@H](NC(=O)C3(C(F)(F)F)CCN(CC(F)(F)F)CC3)C(=O)O)cccc12 [Compound 731] |
|  |  | > 1000 | 10 to 100 | COc1cc(CN2CCC[C@H](F)C2)cc(C(F)(F)F)c1-c1cccc2c(C[C@H](NC(=O)C3(C(F)(F)F)CCN(CC(F)(F)F)CC3)C(=O)O)cccc12 [Compound 848] |
|  |  | > 1000 | 10 to 100 | O=C(O)[C@H](Cc1cccc2c(-c3ncc(CN4CCC(F)(F)CC4)c4ccccc34)cccc12)NC(=O)C1(C(F)(F)F)CCN(CC(F)(F)F)CC1 [Compound 853] |
| > 1000 | < 10 |  |  | COc1cccc(CN2CCCCC2)c1-c1cccc2c(C[C@H](NC(=O)c3c(F)ccc(F)c3C)C(=O)O)cccc12 [Compound 543] |
| > 1000 | 10 to 100 |  |  | COc1ccc(CN2CCC(F)(F)CC2)c(OC)c1-c1cccc2c(C[C@H](NC(=O)c3c(C)cc(C45CCOCC4C5)cc3F)C(=O)O)cccc12 (some centres unmarked) [Compound 616] |
| > 1000 | 10 to 100 |  |  | COc1ccc(CN2CCC(F)CC2)c(C(F)(F)F)c1-c1cccc2c(C[C@H](NC(=O)c3c(C)cccc3F)C(=O)O)cccc12 [Compound 574] |
|  |  | > 1000 | < 10 | CC[C@@H]1CCCN1Cc1cnc(-c2cccc3c(C[C@H](NC(=O)C4(C(F)(F)F)CCN(CC(F)(F)F)CC4)C(=O)O)cccc23)c2ccccc12 [Compound 935] |
